From patent US4440761A, “Interferon inducer, a process for producing the same and pharmaceutical composition containing the same” (The Kitasato Institute, priority 1980, dated 1984)
Entries after “also recorded” stand apart in the source; their conditions may differ. Where two headings read alike, the source gives them in different places.

What was measured:
spleen cell [1] = experiment: IF induction in vitro, mouse spleen cells (determined in L cells); assay type: cell-based; details: 1.0* μg/ml, control
Human spleen = experiment: IF induction in vitro, human spleen (determined in FL cells); assay type: cell-based; details: 1.0* μg/ml, control
Protocol: A spleen cell suspension (10^7 cells/ml) was prepared by the method of hereinafter described Experiment 1 using an Eagle MEM medium (commercial product of Nissui Seiyaku K.K., Tokyo) containing a 10% calf serum (which was replaced by a 10% fetal cattle serum in the cases of human tests), each of which fraction (1 ml) was added with a given concentration of the sample and incubated overnight at a given temperature. The cultured liquor was centrifuged to separate a supernatant which was used for determining the IF activity induced. In the case of humans, the fresh spleen was collected from a person (adult deceased by external wounds) and used for the preparation of a leucocytes suspension on each occasion, and also blood was collected from the vein at the upper arm of a person (adult), from which the serum was separated to use for the preparation of a serum suspension of each occasion.
The IF activities were determined by using the cells shown in Table 5 in a similar manner to that hereinafter described in Experiment 1.

spleen cell [2] = experiment: IF induction in vitro, rabbit spleen cells (determined in RK-13); assay type: cell-based; details: 1.0* μg/ml, control
interferon = details: background, cited from earlier work
[3] = 56° C. for 5 hours; cited from earlier work

Compound | IF inducing activity (interferon) | IF-inducing activity on heating [3] | also measured
Poly I:C | – | – | IF activity in vitro (spleen cell [1]): 75; IF activity in vitro (Human spleen): < 10; IF activity in vitro (spleen cell [2]): 160
pokeweed mitogen | very weak; also recorded: extremely low | inactivated | –
O=C(/C=C/c1ccc(O)cc1)C1=C(O)[C@](O)([C@@H]2O[C@H](CO)[C@@H](O)[C@H](O)[C@H]2O)C(O)=C(/C=C2/C(=O)C(C(=O)/C=C/c3ccc(O)cc3)=C(O)[C@@](O)([C@@H]3O[C@H](CO)[C@@H](O)[C@H](O)[C@H]3O)C2=O)C1=O [carthamine] | no IF inducing activity | – | –
neocarthamine | no IF inducing activity | – | –
carthamone | no IF inducing activity | – | –
phytohemagglutinin | very weak | inactivated | IF inducing activity (interferon; listed as phytohemagglitinin): extremely low
